{"source": "patent US20160355465A1", "about": "“NOVEL MODIFIED CURCUMINS AND THEIR USES” (THE RESEARCH FOUNDATION OF STATE UNIVERSITY OF NEW YORK, priority 2011, published 2016)", "key": {"peritoneal macrophages": {"tested_on": "peritoneal macrophages", "test": "cell migration (chemotaxis) assay of peritoneal macrophages", "type": "in vivo, rat", "conditions": "diabetic rats, oral 30 mg/kg daily, 21 days", "method": "Adult male Sprague-Dawley rats (body weight 300-350 g) were injected through the tail vein with either 0.9% saline (non-diabetic control) or with the same solution containing streptozotocin (70 mg/kg body weight) to induce diabetes. Non-diabetic rats served as normal controls. The diabetic rats were distributed into 2 experimental groups (3 rats per group). Urine glucose levels were measured weekly with Tes-Tape (Eli Lilly Inc.). One group of rats was treated by oral gavage of Compound 4 (30 mg/kg body weight) daily for 21 days; the Compound 4 was suspended in 2% carboxymethyl cellulose and polytron/homogenized. The normal & diabetic vehicle-treated (control) groups were oral gavaged with vehicle alone daily.\nRat peritoneal macrophages were harvested with 10 ml RPMI 4 days after intraperitoneal injection of 10 ml of thioglycolate (3% wt/vol). Macrophages were then purified by density gradient centrifugation (lymphoprep) and cell numbers were counted in a hemocytometer. The cells were then tested in a cell migration assay (Cell BioLabs, Inc, CytoSelect 96-well with 5 um fluorometric format) using conditioned medium containing inflammatory mediators including MCP-1 from LPS-macrophages as a chemoattractant. The macrophages from different groups of rats were also plated onto 24 well-plates with and without p.g.LPS challenge for 24 hours in 37° C., 5% CO2. […]"}, "MMP-3": {"molecular_target": "MMP-3 (Homo sapiens, UniProt P08254)", "sequence (P08254 100-477)": "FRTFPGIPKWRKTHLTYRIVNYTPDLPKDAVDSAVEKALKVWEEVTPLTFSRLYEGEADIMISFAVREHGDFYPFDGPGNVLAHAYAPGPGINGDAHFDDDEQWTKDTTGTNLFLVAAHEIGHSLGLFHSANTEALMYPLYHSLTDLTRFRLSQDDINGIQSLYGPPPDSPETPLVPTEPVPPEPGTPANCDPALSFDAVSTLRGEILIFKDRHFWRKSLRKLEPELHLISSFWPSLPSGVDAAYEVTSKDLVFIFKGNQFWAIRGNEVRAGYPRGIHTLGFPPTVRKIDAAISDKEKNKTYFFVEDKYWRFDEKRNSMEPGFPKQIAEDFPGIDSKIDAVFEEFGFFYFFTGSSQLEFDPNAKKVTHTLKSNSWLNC", "test": "fluorimetric assay of MMP activity", "type": "biochemical", "conditions": "synthetic fluorescent peptide substrate Mca-Lys-Pro-Leu-Gly-Leu-Dpa-Ala-Arg-NH2"}, "MMP-9": {"molecular_target": "MMP-9 (Homo sapiens, UniProt P14780)", "sequence (P14780 94-707)": "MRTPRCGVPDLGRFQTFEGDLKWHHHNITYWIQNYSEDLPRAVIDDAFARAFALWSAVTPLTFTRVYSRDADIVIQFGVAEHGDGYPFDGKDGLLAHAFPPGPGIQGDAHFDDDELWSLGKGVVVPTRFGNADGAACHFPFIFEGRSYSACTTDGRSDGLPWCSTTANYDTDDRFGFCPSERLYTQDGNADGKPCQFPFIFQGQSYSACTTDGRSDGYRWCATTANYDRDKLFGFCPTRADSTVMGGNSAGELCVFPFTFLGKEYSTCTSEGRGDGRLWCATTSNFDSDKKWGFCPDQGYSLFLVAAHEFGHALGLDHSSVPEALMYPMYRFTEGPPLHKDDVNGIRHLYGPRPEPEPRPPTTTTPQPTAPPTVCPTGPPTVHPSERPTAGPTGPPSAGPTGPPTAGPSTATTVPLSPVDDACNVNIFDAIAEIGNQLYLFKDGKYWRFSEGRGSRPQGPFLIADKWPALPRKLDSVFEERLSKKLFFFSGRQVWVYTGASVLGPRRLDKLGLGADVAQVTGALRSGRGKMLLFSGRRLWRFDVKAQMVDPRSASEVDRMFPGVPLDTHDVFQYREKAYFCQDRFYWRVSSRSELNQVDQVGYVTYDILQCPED", "test": "fluorimetric assay of MMP activity", "type": "biochemical", "conditions": "synthetic fluorescent peptide substrate Mca-Lys-Pro-Leu-Gly-Leu-Dpa-Ala-Arg-NH2"}, "[1]": {"test": "toxicity / tolerability in diabetic rats", "type": "in vivo", "method": "The following five experimental groups (n=3 rats per group) were established: Non-diabetic control rats (NDC) treated by daily application of white petrolatum jelly (“vehicle”) for 7 days, diabetic rats (D group) treated daily with vehicle alone; diabetics treated by daily topical application of either a 1% (D+1%) or a 3% (D+3%) suspension of Compound 4 in the vehicle; and diabetics treated systemically by daily oral intubation of a 1 ml suspension of Compound 4 (in carboxymethylcellulose) at a dose of 30 mg/kg over the 7-day treatment protocol (D+30 mg/kg). At the end of this time period, the circular wounds were clinically assessed by measuring diameter of the wound in millimeters, blood samples were collected, the rats were sacrificed, and skin samples collected for histological/histochemical, and biochemical assessment as described below. • 1) On day 7 after inducing wound healing, the animals were anesthetized and blood samples collected for blood glucose (one Touch Ultra Glucometer; Johnson & Johnson, New Brunswick, N.J.) and Hemoglobin A1c (A1c Now+; Bayer Health Care, Sunnyvale, Calif.) measurements. • 2) Photographs were taken for clinical observations to assess wound closure. The % reduction of the wound surface was calculated by measuring the diameter (in millimeters) of each wound before and after the treatment protocol. • 3) Wound tissues on day 7 were excised from 3 sites per rat and pooled for biochemical analysis. […] The supernates were then dialyzed against the Tris-HCl, NaCl, CaCl2 buffer, and the proteinases partially purified by ammonium sulfate precipitation and examined for levels of MMP-2 (72 kD gelatinse) and MMP-9 (92 kD gelatinase) by gelatin zymography using denatured type I collagen (gelatin) as the substrate (6). • 4) The remaining wounds were assessed histologically & histochemically by Dr. Steve McClain (McClain Labs, Smithtown, N.Y.) as follows: Biopsies of each wound site were taken and included both the wound tissue and surrounding non-wounded tissue. […]"}, "MMP-2": {"molecular_target": "T1, MMP-2 (Homo sapiens, UniProt P08253)", "T1 sequence (P08253 110-660)": "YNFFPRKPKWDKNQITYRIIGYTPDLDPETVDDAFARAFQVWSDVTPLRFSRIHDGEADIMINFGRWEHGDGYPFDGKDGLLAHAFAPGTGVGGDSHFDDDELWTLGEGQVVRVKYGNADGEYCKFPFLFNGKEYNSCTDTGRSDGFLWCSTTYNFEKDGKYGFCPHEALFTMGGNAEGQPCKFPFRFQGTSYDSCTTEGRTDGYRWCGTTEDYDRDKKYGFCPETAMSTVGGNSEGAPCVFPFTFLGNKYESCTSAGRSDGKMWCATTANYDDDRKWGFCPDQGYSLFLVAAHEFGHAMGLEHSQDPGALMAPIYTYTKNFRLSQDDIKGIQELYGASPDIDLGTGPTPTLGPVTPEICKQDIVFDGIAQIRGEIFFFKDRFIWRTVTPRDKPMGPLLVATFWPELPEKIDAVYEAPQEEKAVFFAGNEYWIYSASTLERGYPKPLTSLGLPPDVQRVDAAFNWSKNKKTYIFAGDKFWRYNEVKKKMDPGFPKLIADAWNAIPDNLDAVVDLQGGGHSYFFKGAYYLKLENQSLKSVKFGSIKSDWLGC", "test": "fluorimetric assay of MMP activity", "type": "biochemical", "conditions": "synthetic fluorescent peptide substrate Mca-Lys-Pro-Leu-Gly-Leu-Dpa-Ala-Arg-NH2; read-out: IC50 MMP-2"}, "MMP-13": {"molecular_target": "MMP-13 (Homo sapiens, UniProt P45452)", "test": "fluorimetric assay of MMP activity", "type": "biochemical", "conditions": "synthetic fluorescent peptide substrate Mca-Lys-Pro-Leu-Gly-Leu-Dpa-Ala-Arg-NH2"}, "contact dermatitis": {"tested_on": "contact dermatitis", "test": "poison ivy contact dermatitis on the arms of a human subject, topical", "type": "in vivo", "conditions": "Example 9", "source_text": "The leaves of a poison ivy plant are applied to equally sized areas of the left and right arms of a human subject."}, "[2]": {"test": "severity of hyperglycemia (blood glucose, HbA1c) in diabetic rats", "type": "in vivo, rat", "method": "The following five experimental groups (n=3 rats per group) were established: Non-diabetic control rats (NDC) treated by daily application of white petrolatum jelly (“vehicle”) for 7 days, diabetic rats (D group) treated daily with vehicle alone; diabetics treated by daily topical application of either a 1% (D+1%) or a 3% (D+3%) suspension of Compound 4 in the vehicle; and diabetics treated systemically by daily oral intubation of a 1 ml suspension of Compound 4 (in carboxymethylcellulose) at a dose of 30 mg/kg over the 7-day treatment protocol (D+30 mg/kg). At the end of this time period, the circular wounds were clinically assessed by measuring diameter of the wound in millimeters, blood samples were collected, the rats were sacrificed, and skin samples collected for histological/histochemical, and biochemical assessment as described below. • 1) On day 7 after inducing wound healing, the animals were anesthetized and blood samples collected for blood glucose (one Touch Ultra Glucometer; Johnson & Johnson, New Brunswick, N.J.) and Hemoglobin A1c (A1c Now+; Bayer Health Care, Sunnyvale, Calif.) measurements. • 2) Photographs were taken for clinical observations to assess wound closure. […]"}}, "note": "Entries after “also recorded” stand apart in the source; their conditions may differ."}
{"smiles": "O=C(/C=C/c1ccc(O)cc1)C(C(=O)/C=C/c1ccc(O)cc1)C(=O)Nc1ccccc1", "note": "[Compound 4, 1,7-Bis(4-hydroxyphenyl)-4-N-phenylaminocarbonylhepta-1E, 6E-dien-3,5-dione]", "values": [{"measurement": "macrophage chemotactic activity", "setting": "peritoneal macrophages", "value": "counteracted the suppression of macrophage chemotactic activity"}, {"measurement": "IC50", "setting": "MMP-3", "value": "2.9 ± 0.4", "unit": "µM"}, {"measurement": "IC50", "setting": "MMP-9", "value": "8 ± 0.6", "unit": "µM"}, {"measurement": "toxic effects", "setting": "[1]; 30 mg/kg body weight, diabetic rats", "value": "virtually no toxic effects"}, {"measurement": "tolerability", "setting": "[1]; topical (e.g. 1%) or systemic administration", "value": "well tolerated; also recorded: well tolerated and not toxic"}, {"measurement": "IC50", "setting": "MMP-2", "value": "4.8 ± 0.5", "unit": "µM"}, {"measurement": "IC50", "setting": "MMP-13", "value": "2.7 ± 0.7", "unit": "µM"}, {"measurement": "itching and healing of contact dermatitis compared with Compound 2", "setting": "contact dermatitis", "value": "stops itching sooner and heals quicker"}, {"measurement": "effect on severity of hyperglycemia", "setting": "[2]; oral 30 mg/kg daily, 21 days", "value": "did not affect the severity of hyperglycemia"}, {"measurement": "effect on severity of hyperglycemia (blood glucose, HbA1c)", "setting": "[2]; topical 1% or 3% or oral 30 mg/kg, 7 days", "value": "none of the topical or systemic treatments with Compound 4 demonstrated any effect"}]}
